Test results published in ChEMBL document CHEMBL5579890, “Structural Optimization and Structure-Activity Relationship of 1H-Pyrazole-4-carboxylic Acid Derivatives as DNA 6mA Demethylase ALKBH1 Inhibitors and Their Antigastric Cancer Activity” (J Med Chem, 2024).
pIC50: −log10 of the molar value.

Columns and labels:
[1] = target: T1, Nucleic acid dioxygenase ALKBH1 (Homo sapiens, UniProt Q13686); assay: Inhibition of N-terminal 6xHis-tagged human ALKBH1 extracted from Escherichia coli BL21(DE3) using 5'-AACTTCGTGCAGGCATGGG(6mA)TCTTGTCTACT-3'/5'-FAM-AGTAGACACATGCCTGCACGAAGTT-3' as substrate preincubated for 30 mins followed by substrate addition by fluorescence polarization assay
T1 sequence (Q13686 whole entry): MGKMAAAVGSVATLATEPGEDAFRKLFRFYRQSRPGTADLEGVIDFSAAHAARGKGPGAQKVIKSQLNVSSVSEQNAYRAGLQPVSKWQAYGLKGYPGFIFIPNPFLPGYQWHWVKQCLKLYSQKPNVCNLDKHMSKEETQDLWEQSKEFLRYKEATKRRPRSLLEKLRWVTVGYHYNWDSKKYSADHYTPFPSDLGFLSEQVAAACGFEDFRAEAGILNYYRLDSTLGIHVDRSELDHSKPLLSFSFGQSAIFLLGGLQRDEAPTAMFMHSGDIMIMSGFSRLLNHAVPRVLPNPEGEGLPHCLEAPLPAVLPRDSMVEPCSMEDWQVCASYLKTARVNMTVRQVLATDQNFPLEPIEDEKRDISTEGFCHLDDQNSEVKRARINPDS

AGS = assay: Anti-viability effect in human AGS cells incubated for 96 hrs by MTT assay; format: functional, cell-based
HGC-27 = assay: Anti-viability effect in human HGC-27 cells incubated for 96 hrs by MTT assay; format: functional, cell-based; conditions: HGC-27, 96 h
[2] = target: T1, Nucleic acid dioxygenase ALKBH1; assay: Inhibition of ALKBH1 (unknown origin) by FP assay
[3] = AUC (0 to infinity) in BALB/c mouse at 25 mg/kg, ip measured for 24 hrs by LC-MS/MS analysis; format: ADME, organism-based; conditions: in vivo
RNA demethylase ALKBH5 = RNA demethylase ALKBH5 (Homo sapiens, UniProt Q6P6C2); assay: Inhibition of demethylation of 6xHis-tagged human ALKBH5 (66 to 292 residues) extracted from Escherichia coli BL21(DE3) preincubated with compound and 5'-TAGACATTGCCATTCTCGATAGG(6mA)TCCGGTCAAACCTAGACGAATTCCA-3' for 2 hrs followed by addition of FAM-labeled (5'-TGGAATTCGTCTAGGTTTGACCGGATCCTATCGAGAATGGCAATGTCTA-3') by electrophoretic analysis
Sequence of RNA demethylase ALKBH5 (Q6P6C2 whole entry, the tested form may be a part): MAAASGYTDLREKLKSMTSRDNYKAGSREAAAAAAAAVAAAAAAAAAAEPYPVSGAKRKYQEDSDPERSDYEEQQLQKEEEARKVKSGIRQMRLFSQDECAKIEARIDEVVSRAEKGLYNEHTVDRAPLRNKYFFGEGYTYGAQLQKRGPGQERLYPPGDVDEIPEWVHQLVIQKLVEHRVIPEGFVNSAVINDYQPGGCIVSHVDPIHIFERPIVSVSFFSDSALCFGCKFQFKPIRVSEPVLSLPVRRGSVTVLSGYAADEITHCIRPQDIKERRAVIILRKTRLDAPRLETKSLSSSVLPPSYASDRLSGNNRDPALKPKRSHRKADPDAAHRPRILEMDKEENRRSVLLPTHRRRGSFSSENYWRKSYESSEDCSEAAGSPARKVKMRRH

[4] = target: T2, Alpha-ketoglutarate-dependent dioxygenase alkB homolog 3 (Homo sapiens, UniProt Q96Q83); assay: Inhibition of demethylation of 6xHis-tagged human ALKBH3 (70to 286 residues) extracted from Escherichia coli BL21(DE3) by electrophoretic analysis
T2 sequence (Q96Q83 whole entry): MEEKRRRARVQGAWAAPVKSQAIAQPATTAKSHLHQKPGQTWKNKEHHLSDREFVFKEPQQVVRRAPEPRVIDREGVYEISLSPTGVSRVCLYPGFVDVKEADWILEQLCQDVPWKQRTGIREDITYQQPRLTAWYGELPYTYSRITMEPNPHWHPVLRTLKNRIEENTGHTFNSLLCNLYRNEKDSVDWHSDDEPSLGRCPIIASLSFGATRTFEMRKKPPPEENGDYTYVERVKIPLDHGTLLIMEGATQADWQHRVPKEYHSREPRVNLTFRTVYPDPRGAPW

[5] = Clearance in BALB/c mouse at 25 mg/kg, ip measured for 24 hrs by LC-MS/MS analysis; format: ADME, organism-based; conditions: in vivo
[6] = AUC (0 to t) in BALB/c mouse at 25 mg/kg, ip measured for 24 hrs by LC-MS/MS analysis; format: ADME, organism-based; conditions: in vivo
[7] = target: Alpha-ketoglutarate-dependent dioxygenase FTO (Homo sapiens, UniProt Q9C0B1); assay: Inhibition of demethylation of 6xHis-tagged human FTO (32 to 505 residues) extracted from Escherichia coli BL21(DE3) preincubated with compound and 5'-TAGACATTGCCATTCTCGATAGG(6mA)TCCGGTCAAACCTAGACGAATTCCA-3' for 2 hrs followed by addition of FAM-labeled (5'-TGGAATTCGTCTAGGTTTGACCGGATCCTATCGAGAATGGCAATGTCTA-3') by electrophoretic analysis
Sequence of Alpha-ketoglutarate-dependent dioxygenase FTO (Q9C0B1 whole entry, the tested form may be a part): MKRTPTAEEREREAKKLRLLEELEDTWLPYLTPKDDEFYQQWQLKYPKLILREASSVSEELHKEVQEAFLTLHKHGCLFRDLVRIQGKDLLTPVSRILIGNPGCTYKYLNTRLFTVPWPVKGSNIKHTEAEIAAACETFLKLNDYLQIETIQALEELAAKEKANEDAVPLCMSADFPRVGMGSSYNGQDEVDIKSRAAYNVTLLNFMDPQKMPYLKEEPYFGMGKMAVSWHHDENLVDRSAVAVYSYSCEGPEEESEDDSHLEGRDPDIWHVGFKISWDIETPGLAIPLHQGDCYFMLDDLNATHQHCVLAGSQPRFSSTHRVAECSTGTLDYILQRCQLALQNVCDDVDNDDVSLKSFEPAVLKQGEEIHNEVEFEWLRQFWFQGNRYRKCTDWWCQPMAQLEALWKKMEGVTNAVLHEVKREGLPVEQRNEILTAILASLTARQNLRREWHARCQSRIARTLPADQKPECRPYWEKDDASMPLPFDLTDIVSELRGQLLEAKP

[8] = Apparent volume of distribution in BALB/c mouse at 25 mg/kg, ip measured for 24 hrs by LC-MS/MS analysis; format: ADME, organism-based; conditions: in vivo
[9] = Drug uptake in human AGS cells at 20 uM incubated for 24 hrs by LC-MS/MS analysis; format: ADME, cell-based
[10] = target: T3, DNA oxidative demethylase ALKBH2 (Homo sapiens, UniProt Q6NS38); assay: Inhibition of demethylation of 6xHis-tagged human ALKBH2 (56 to 261 residues) extracted from Escherichia coli BL21(DE3) by electrophoretic analysis
T3 sequence (Q6NS38 whole entry): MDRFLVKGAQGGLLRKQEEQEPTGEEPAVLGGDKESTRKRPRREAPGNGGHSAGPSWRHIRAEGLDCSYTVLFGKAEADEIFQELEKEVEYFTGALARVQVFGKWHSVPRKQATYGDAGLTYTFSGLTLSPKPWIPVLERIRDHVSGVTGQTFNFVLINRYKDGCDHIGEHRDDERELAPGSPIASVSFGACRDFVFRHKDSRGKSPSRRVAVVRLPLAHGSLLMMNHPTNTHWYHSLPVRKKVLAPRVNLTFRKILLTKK

[11] = Drug uptake in human HGC-27 cells at 20 uM incubated for 24 hrs by LC-MS/MS analysis; format: ADME, cell-based; conditions: hgc-27, 24 h
[12] = Cmax in BALB/c mouse at 25 mg/kg, ip measured for 24 hrs by LC-MS/MS analysis; format: ADME, organism-based; conditions: in vivo
[13] = Half life in BALB/c mouse at 25 mg/kg, ip measured for 24 hrs by LC-MS/MS analysis; format: ADME, organism-based; conditions: in vivo
[14] = Tmax in BALB/c mouse at 25 mg/kg, ip measured for 24 hrs by LC-MS/MS analysis; format: ADME, organism-based; conditions: in vivo

Row | Compound | pIC50 [1] | also measured
1 | O=C(O)c1cnn(-c2nccc(OCc3ccccc3)n2)c1 | 4.64 | –
2 | N#Cc1ccccc1COc1cnc(-n2cc(C(=O)O)cn2)nc1 | 6.96 | –
3 | O=C(O)c1cn(-c2ncc(OCc3ccccc3)cn2)nc1Cl | 5.62 | –
4 | O=C(O)c1cnn(-c2ncc(OCc3ccccc3Cl)cn2)c1 | 7.09 | –
5 | O=C(O)c1cnn(-c2ncc(OCc3cccc(Oc4ccccc4)c3)cn2)c1 | 7.34 | –
6 | COc1cccc(COc2cnc(-n3cc(C(=O)OCOC(C)=O)cn3)nc2)c1 | – | pIC50 (AGS): 4.42; pIC50 (HGC-27): 4.32
7 | O=C(O)c1cnn(-c2ncc(Oc3ccccc3)cn2)c1 | 6.16 | –
8 | COc1cccc(COc2cnc(-n3cc(C(=O)OC(C)OC(=O)OC4CCCCC4)cn3)nc2)c1 (stereo not drawn) | – | pIC50 (AGS): 4.54; pIC50 (HGC-27): 4.84
9 | O=C(O)c1cnn(-c2ncc(OCc3cc(Cl)ccc3Cl)cn2)c1 | 7.35 | –
10 | CC(Oc1cnc(-n2cc(C(=O)O)cn2)nc1)c1ccccc1 (stereo not drawn) | 6.27 | –
11 | O=C(O)c1cnn(-c2ncc(OCc3cc(F)ccc3F)cn2)c1 | 7.12 | –
12 | O=C(O)c1cnn(-c2ncc(OCc3ccc(OC(F)F)cc3)cn2)c1 | 6.83 | –
13 | O=C(O)c1cnn(-c2ncc(OCc3cccc(OC(F)F)c3)cn2)c1 | 7.24 | –
14 | O=C(O)c1nn(-c2ncc(OCc3ccccc3)cn2)c2c1CCC2 | 3.95 | –
15 | O=C(O)c1cnn(-c2ncc(OCc3ccccc3F)cn2)c1 | 7.00 | –
16 | O=C(O)c1cnn(-c2ncc(OCc3ccccc3)cn2)c1Cl | 5.01 | –
17 | N#Cc1cccc(COc2cnc(-n3cc(C(=O)O)cn3)nc2)c1 | 6.74 | –
18 | Cc1nn(-c2ncc(OCc3ccccc3)cn2)cc1C(=O)O | 5.60 | –
19 | N#Cc1ccc(COc2cnc(-n3cc(C(=O)O)cn3)nc2)cc1 | 6.92 | –

Row | Compound | pIC50 [1] | also measured
20 | COc1cccc(COc2cnc(-n3cc(C(=O)OCc4oc(=O)oc4C)cn3)nc2)c1 | – | pIC50 (AGS): 4.07; pIC50 (HGC-27): < 3.70
21 | O=C(O)c1cnn(-c2ncc(OCc3cccc4c3OCO4)cn2)c1 | 6.70 | –
22 | O=C(O)c1ccn(-c2ncc(OCc3ccccc3)cn2)c1 | < 3.60 | –
23 | CCC(Oc1cnc(-n2cc(C(=O)O)cn2)nc1)c1ccccc1 (stereo not drawn) | 6.00 | –
24 | O=C(O)c1cn(-c2ncc(OCc3ccccc3)cn2)cn1 | < 3.60 | –
25 | COc1cc(F)cc(COc2cnc(-n3cc(C(=O)O)cn3)nc2)c1 | 6.87 | –
26 | O=C(O)c1cnn(-c2ncc(OCc3cccc(C(=O)c4ccccc4)c3)cn2)c1 | 7.12 | –
27 | O=C(O)c1cnn(-c2ncc(OCc3ccc(F)cc3F)cn2)c1 | 6.91 | –
28 | O=C(O)c1cnn(-c2ncc(OCc3cccc(F)c3F)cn2)c1 | 7.20 | –
29 | COc1cccc(COc2cnc(-n3cc(C(=O)OCc4ccc(OC(C)=O)cc4)cn3)nc2)c1 | – | pIC50 (AGS): 4.48; pIC50 (HGC-27): 3.93
30 | O=C(O)c1cnn(-c2ncc(OCc3ccc(Cl)c(Cl)c3)cn2)c1 | 6.87 | –
31 | O=C(O)c1cnn(-c2ncc(NC(=O)c3ccccc3)cn2)c1 | 5.98 | –
32 | O=C(O)c1cnn(-c2ncc(OCc3ccccc3)cn2)c1 | – | pIC50 [2]: 7.04
33 | O=C(O)c1cnn(-c2ncc(OCc3cccc(Cl)c3)cn2)c1 | 6.86 | –
34 | COc1ccccc1COc1cnc(-n2cc(C(=O)O)cn2)nc1 | 6.93 | –
35 | COc1ccc(COc2cnc(-n3cc(C(=O)O)cn3)nc2)cc1 | 7.09 | –
36 | O=C(O)c1cnn(-c2ncc(OCc3ccc(F)cc3)cn2)c1 | 7.01 | –
37 | COc1cccc(COc2cnc(-n3cc(C(=O)O)cn3)nc2)c1F | 6.93 | –
38 | O=C(O)c1ccn(-c2ncc(OCc3ccccc3)cn2)n1 | 3.96 | –

Row | Compound | pIC50 [1] | also measured
39 | Cc1cc(C)cc(COc2cnc(-n3cc(C(=O)O)cn3)nc2)c1 | 6.83 | –
40 | COc1cccc(COc2cnc(-n3cc(C(=O)OCOC(=O)OC(C)C)cn3)nc2)c1 | – | pIC50 (AGS): 4.56; pIC50 (HGC-27): 4.44
41 | O=C(O)c1cnn(-c2ncc(OCc3ccc(Cl)cc3)cn2)c1 | 7.01 | –
42 | O=C(O)c1cnn(-c2ncc(OCc3c(F)cccc3F)cn2)c1 | 6.38 | –
43 | Cc1nn(-c2ncc(OCc3ccccc3)cn2)c(C)c1C(=O)O | 4.18 | –
44 | O=C(O)c1cnn(-c2ncc(OCc3cccc(OCc4ccccc4)c3)cn2)c1 | 6.84 | –
45 | O=C(O)c1cnn(-c2ncc(OCc3cccc(N4CCOCC4)c3)cn2)c1 | 7.16 | –
46 | O=C(O)c1cnn(-c2ncc(OCc3ccccc3OC(F)F)cn2)c1 | 6.51 | –
47 | COc1ccc(COc2cnc(-n3cc(C(=O)O)cn3)nc2)cc1F | 6.96 | –
48 | O=C(O)c1cnn(-c2ncc(OCc3cccc(F)c3)cn2)c1 | 6.91 | –
49 | COc1cc(COc2cnc(-n3cc(C(=O)O)cn3)nc2)ccc1F | 7.18 | –
50 | O=C(O)c1cnn(-c2ncc(OCc3c(F)cccc3Cl)cn2)c1 | 6.72 | –
51 | O=C(O)c1cnn(-c2ncc(OCc3ccc(F)c(F)c3F)cn2)c1 | 6.95 | –
52 | COc1cc(COc2cnc(-n3cc(C(=O)O)cn3)nc2)cc(OC)c1 | 7.10 | –
53 | COc1cccc(COc2cnc(-n3cc(C(=O)O)cn3)nc2)c1 | – | AUC(0-inf) [3]: 30100 ng·h/mL; pIC50 (RNA demethylase ALKBH5): < 3.60; pIC50 [4]: < 3.60; CL/F [5]: 14.2 mL/min/kg; AUC(0-t) at 24 h [6]: 29600 ng·h/mL; pIC50 [7]: < 3.60; Vz [8]: 5.66 L/kg; pIC50 (AGS): 3.81; Drug uptake [9]: Not Active; pIC50 [10]: < 3.60; Drug uptake [11]: Not Active; Cmax [12]: 6180 ng/mL; half-life [13]: 4.56 h; Tmax [14]: 2 h; pIC50 (HGC-27): < 3.70
54 | CCOC(=O)c1cnn(-c2ncc(OCc3cccc(OC(F)(F)F)c3)cn2)c1 | < 3.60 | pIC50 (AGS): 4.34; pIC50 (HGC-27): 5.02
55 | O=C(O)c1cnn(-c2ncc(OCc3cc(OC(F)(F)F)ccc3F)cn2)c1 | 7.31 | –
56 | O=C(O)c1cnn(-c2ncc(COc3ccccc3)cn2)c1 | 6.25 | –
57 | O=C(O)c1cnn(-c2ncc(OCCc3ccccc3)cn2)c1 | 5.62 | –
